# Laboratory results taken from US20060228384A1, “Control of biofilm with a biofilm inhibitor” (Sequoia Sciences, Inc., priority 2005, published 2006).
# How the values were obtained:
# biofilm = assay: Biofilm Inhibition Assay (compound library screening and analogs, methods as in Example 1); assay type: cell-based; settings: tested as mentioned in Example 1
# From the text: As is evident from the Biofilm Inhibiton Assay results presented in Table 1, one compound from Hit 39, SF382 confirmed biofilm inhibition after purification. […] Thus, the percentage of bacteria attached (within the biofilm) versus free-floating compared to untreated (negative) control has shifted toward free-floating upon addition of the treatment. Compound SF382 was particularly active, reducing the formation of biofilm by 50% compared to negative control. Compound SF382 is represented by structure (I).
# (§1) In vitro biofilm inhibition was evaluated using a high-throughput method. This method uses standard pre-sterilized 96-well polystyrene microtiter plates. Each well was filled to a final volume of 200 μl. Initially, a concentrated compound solution is transferred into each well, except those which are used as controls, to achieve an appropriate testing concentration, typically 10 μg/ml. 150 μl of sterile media was then added, followed by 50 μl of bacterial inoculum. The plates were then placed on a shaker for 24 hours.
# After the allotted growth time, the samples were removed from the shaker, rinsed and stained. The rinse involves first draining the wells, filling each well with PBS, and draining each well again. The rinse removes suspended cells from the system. […] The plate was then immediately analyzed with a microtiter plate reader. The samples and controls were analyzed in triplicate. […]
# Gram-positive bacteria = settings: cited from earlier work
# [1] = test system: Gram-negative bacteria such as Pseudomonas aeruginosa, and Escherichia coli; settings: also P. acnes and several methicillin-resistant S. aureus strains; cited from earlier work
# [2] = test system: Pseudomonas aeruginosa strain PAO1; assay: Rotating disk reactor biofilm with tobramycin, CFU enumeration (Example 5); assay type: cell-based; settings: palmitoleic acid approx. 100 μg/ml 24 h then tobramycin 100 μg/ml 2 h; combined treatment compared to tobramycin alone
# Description: Biofilm formation of P. aeruginosa was evaluated using a standardized biofilm method with a rotating disk reactor (RDR). This method provides a model resembling the formation of biofilms in cystic fibrosis patients. The rotating disk reactor consists of a one-liter glass beaker fitted with a drain spout. The bottom of the vessel contains a magnetically driven rotor with six 1.27 cm diameter coupons constructed from polystyrene. The rotor consists of a star-head magnetic stir bar upon which a disk was affixed to hold the coupons. The vessel with the stir bar was placed on a stir plate and rotated to provide fluid shear. A nutrient solution (AB Trace Medium with 0.3 mM glucose, see Table 3 below for composition) was added through a stopper in the top of the reactor at a flow rate of 5 ml/min. The reactor volume was approximately 180 ml and varied slightly between reactors depending on the placement of the drain spout and the rotational speed of the rotor. At a volume of 180 ml, the residence time of the reactors was 36 minutes. The reactors were operated at room temperature (c.a. 26° C.).
# For each test, two RDRs were operated in parallel with one receiving palmitoleic acid and the other serving as an untreated control. […] The plates were incubated for 24 hours at 37° C. before colony forming units (CFU) were determined.
# [3] = In vivo PK study in rats (Example 9); parameters: species or system rat; settings: plasma
# Description: Two groups of animals were prepared to evaluate palmitoleic acid. Palmitoleic acid was evaluated for two dose routes consisting of 50 mg/kg (IV) and 100 mg/kg (Oral). Three animals were assigned to the IV route group and two animals were assigned to the oral route group. Prior to dosing, a baseline blood sample was taken from each animal. At time zero, a single bolus dose of palmitoleic acid in 10% Cremophor (BASF) was given to each animal. Blood samples were taken from each animal at 1, 4, 12 and 24 hours post dosing. All blood samples were processed to plasma.
# The plasma samples were extracted by adding internal standard at a concentration of 10 μg/mL to achieve a final concentration of 2 μg/mL when reconstituted. A solution of 80:20 methanol:chloroform was used to cause protein precipitation. The samples were then vortexed and centrifuged. The supernatant was decanted and the solvent was evaporated off. Samples were then analyzed and quantified by LC/MS.
# [4] = test system: Streptococcus sobrinus 6715; assay: Biofilm growth inhibition in polycarbonate tubes (Example 8); assay type: cell-based; settings: 80 μg/mL
# [5] = test system: Streptococcus mutans 25175; assay: as above; assay type: cell-based; settings: 80 μg/mL
# [6] = test system: human hepatocellular carcinoma cells (HepG2); assay: In vitro cytotoxicity assessment (Example 7); assay type: cell-based; settings: 30 or 60 μM, fluorometric detection of mitochondrial activity
# Description: Palmitoleic acid was tested to assess its cytotoxicity in human hepatocellular carcinoma cells (HepG2). Palmitoleic acid was tested at two concentrations of 30 and 60 μM in HepG2 cells in triplicate. Gross cytotoxicity was assayed by fluorometric detection in response to mitochondrial activity according to Nociari M M, et al. (1998) J. Immunol. Met. 213:157. Chlorpromazine was used as a positive control.
# Propionibacterium acnes = settings: each compound alone; cited from earlier work
# P. acnes = settings: 125 ug/ml; cited from earlier work
# Escherichia coli UTI89 = assay: Biofilm inhibition dose response, clinical strain (Example 4); assay type: cell-based; settings: LB media, compared to controls
# Description: (§2) Biofilm inhibition experiments were conducted using an assay adapted from the reported protocol described in Pratt and Kolter, 1998, Molecular Microbiology, 30: 285-293; Li et al., 2001, J. Bacteriol., 183: 897-908. E. coli JM109 was grown in LB with or without 0.2% glucose in 96 well plates at 37° C. for two days without shaking. To quantify the biofilm mass, the suspension culture was poured out and the biofilm was washed three times with water. The biofilm was stained with 0.1% crystal violet for 20 minutes. The plates were then washed three times with water. OD reading at 540 nm was measured to quantify the biofilm mass at the bottom of the wells. Then 95% ethanol was added to dissolve the dye at the bottom and on the wall and the OD reading at 540 nm was measured to quantify the total biofilm mass. To study the overall effect of palmitoleic acid (3.6 mg/mL in 100% ethanol as stock solution), it was added with the inoculation and a time course of biofilm mass was measured. To study if the compound can cause biofilm removal, it was added one day after inoculation. Appropriate amounts of 100% ethanol were added to each sample to eliminate the effect of solvent. Four plates were prepared for each study to give a time course. Each condition had 3-4 replicates on each plate.
# Dose response experiments were conducted on palmitoleic acid as described in Example 2 at 4, 8, 16, and 32 ug/mL with E. coli UT189 in LB media.
# [7] = test system: methicillin-resistant Staphylococcus aureus ATCC 33591; assay: Antibacterial effect, NCCLS procedures (Example 3); assay type: cell-based; settings: ATCC33591, studied at 32 μg/mL, read-out: MIC (minimal inhibitory concentration)
# Description: (§3) Using the appropriate NCCLS procedures, the antibacterial effect of palmitoleic acid on two strains of methicillin-resistant Staphylococcus aureus (ATCC 33591 and 78-13607A) was studied at 32 μg/mL.
# [8] = test system: methicillin-resistant Staphylococcus aureus 78-13607A; assay: Antibacterial effect, NCCLS procedures (Example 3); assay type: cell-based; settings: studied at 32 μg/mL, read-out: MIC (minimal inhibitory concentration)
# Description: as §3
# [9] = test system: clinical strains of Staphylococcus aureus; settings: 100 ug/ml; cited from earlier work
# Escherichia coli JM109 = assay: Biofilm formation and growth of wild-type E. coli JM109 (Example 2); assay type: cell-based; settings: compared to controls
# Description: as §2
# [10] = test system: Staphylococcus epidermidis ATCC 29641; assay: In vitro biofilm inhibition, 96-well plate, crystal violet (Example 1); assay type: cell-based; settings: ATCC29641, 10 μg/mL, 24 hours
# Description: as §1
# (§4) After the allotted growth time, the samples were removed from the shaker, rinsed and stained. The rinse involves first draining the wells, filling each well with PBS, and draining each well again. The rinse removes suspended cells from the system. The biofilm was then stained with crystal violet for 20 minutes. The wells were each rinsed 4 times to remove any excess stain from the system and then eluted with 250 μl of ethanol. The elution step improves the detection of the stain during the analyses. The plate was then immediately analyzed with a microtiter plate reader. The samples and controls were analyzed in triplicate. Each plate contains negative and positive controls. The test samples were compared to the positive and negative controls to detect any reduction in the total amount of biofilm.
# [11] = test system: Pseudomonas aeruginosa PA01; assay: as above; assay type: cell-based; settings: 10 μg/mL, 24 hours
# Description: as §1, §4
structure (smiles),measurement,setting,value
CCCCCCCCCCCCCCCC(=O)O [palmitic acid],inhibition of the formation of biofilms,biofilm,does not inhibit the formation of biofilms
CCCCCC/C=C\CCCCCCCC(=O)O [palmitoleic acid],typical minimal inhibitory concentration (MIC) value,Gram-positive bacteria; growth of Gram-positive bacteria,10 to 20 µg/mL
same,synergistic effect with mupirocin,Gram-positive bacteria; palmitoleic acid and mupirocin against Gram-positive bacteria,no synergistic effect was observed
same,growth inhibition,[1],could not inhibit the growth
same,reduction of CFUs,[2],60%
same,AUC,[3]; IV 50 mg/kg single bolus in 10% Cremophor,123 µg/mL/h
same,AUC,[3]; oral 100 mg/kg single dose in 10% Cremophor,219.71 µg/mL/h
same,inhibition at 80 µg/mL,[4],> 75%
same,inhibition at 80 µg/mL,[5],> 75%
same,cytotoxicity,[6],not observed
same,"growth inhibition, compound alone",Propionibacterium acnes,neither compound alone could effectively inhibit the growth
same,growth inhibition,P. acnes,failed to inhibit the growth
same,inhibition at 4 µg/mL,Escherichia coli UTI89; 4 μg/mL,~10%
same,inhibition at 8 µg/mL,Escherichia coli UTI89; 8 μg/mL,~55%
same,inhibition at 16 µg/mL,Escherichia coli UTI89; 16 μg/mL,~70%
same,inhibition at 32 µg/mL,Escherichia coli UTI89; 32 μg/mL,~80%
same,MIC,[7],> 32 µg/mL
same,MIC,[8],> 32 µg/mL
same,inhibitory effect,[9],no inhibitory effect
same,inhibition of total biofilm formation (reduction),"Escherichia coli JM109; approximately 20 μM, added with inoculation",about 60%
same,inhibitory effect on growth,Escherichia coli JM109,no inhibitory effect
same,inhibition at 10 µg/mL,[10],80%
same,inhibition at 10 µg/mL,[11],55%
"Cc1ncc([N+](=O)[O-])n1CCO [metranidazole, reference compound]","growth inhibition, compound alone",Propionibacterium acnes,neither compound alone could effectively inhibit the growth
